pIC50: −log10 of the molar value. Active and inactive are the calls of the source. No cut-off for these calls is given here.

In test [1] the test system is NG108-15. Nature of the test: Neuroprotective activity against H2O2-induced oxidative stress in mouse/rat NG108-15 cells assessed as increase in cell viability at 10 uM incubated for 2 hrs prior to H2O2 challenge for 2 hrs by MTT assay. Format: functional, cell-based.
The next test has as its target Cholinesterase (Homo sapiens, UniProt P06276).
Another test deals with C6. As to the kind of experiment: cells. The conditions noted are these: Rattus norvegicus, C6, 24 h, read-out: Activity.
Test [2] has as its system NG108-15. As to the kind of experiment: cells. Particulars: Murinae, NG108-15, read-out: Activity.
Description: Neuroprotective activity against H2O2-induced oxidative stress in mouse/rat NG108-15 cells assessed as cell viability at 100 uM incubated for 2 hrs prior to H2O2 challenge for 2 hrs by MTT assay
Test [3] concerns NG108-15. Nature of the test: Neuroprotective activity against H2O2-induced oxidative stress in mouse/rat NG108-15 cells assessed as increase in cell viability at 1 uM incubated for 2 hrs prior to H2O2 challenge for 2 hrs by MTT assay. Format: functional, cell-based.
Test [4] deals with Mus musculus. Nature of the test: Inhibition of scopolamine-induced cognitive deficit in ICR mouse assessed as spontaneous alternation behaviour at 50 micromol/kg, ip administered 1 hr prior to scopolamine challenge measured after 30 mins by Y-maze test (reference value: 40.22 +/-3.54%). Set-up: scale not given: the % may be the effect or the level left. It is filed as functional.

In test [5] the test system is Mus musculus. Nature of the test: Inhibition of scopolamine-induced cognitive deficit in ICR mouse assessed as spontaneous alternation behaviour at 25 micromol/kg, ip administered 1 hr prior to scopolamine challenge measured after 30 mins by Y-maze test (reference value: 40.22 +/-3.54%). It is filed as functional. Also on record: scale not given: the % may be the effect or the level left.

The test system of test [6] is Mus musculus. As to the kind of experiment: Inhibition of scopolamine-induced cognitive deficit in ICR mouse assessed as time spent swimming in Q1 quadrant at 50 micromol/kg, ip administered 1 hr prior to scopolamine challenge measured after 30 mins by morris water maze test (reference value: 11.76 +/-0.49s). It is filed as functional.
Test [7] concerns Mus musculus. Nature of the test: Inhibition of scopolamine-induced cognitive deficit in ICR mouse assessed as time spent swimming in Q1 quadrant at 25 micromol/kg, ip administered 1 hr prior to scopolamine challenge measured after 30 mins by morris water maze test (reference value: 11.76 +/-0.49s). Format: functional.

Cholinesterase, sequence (P06276 whole entry): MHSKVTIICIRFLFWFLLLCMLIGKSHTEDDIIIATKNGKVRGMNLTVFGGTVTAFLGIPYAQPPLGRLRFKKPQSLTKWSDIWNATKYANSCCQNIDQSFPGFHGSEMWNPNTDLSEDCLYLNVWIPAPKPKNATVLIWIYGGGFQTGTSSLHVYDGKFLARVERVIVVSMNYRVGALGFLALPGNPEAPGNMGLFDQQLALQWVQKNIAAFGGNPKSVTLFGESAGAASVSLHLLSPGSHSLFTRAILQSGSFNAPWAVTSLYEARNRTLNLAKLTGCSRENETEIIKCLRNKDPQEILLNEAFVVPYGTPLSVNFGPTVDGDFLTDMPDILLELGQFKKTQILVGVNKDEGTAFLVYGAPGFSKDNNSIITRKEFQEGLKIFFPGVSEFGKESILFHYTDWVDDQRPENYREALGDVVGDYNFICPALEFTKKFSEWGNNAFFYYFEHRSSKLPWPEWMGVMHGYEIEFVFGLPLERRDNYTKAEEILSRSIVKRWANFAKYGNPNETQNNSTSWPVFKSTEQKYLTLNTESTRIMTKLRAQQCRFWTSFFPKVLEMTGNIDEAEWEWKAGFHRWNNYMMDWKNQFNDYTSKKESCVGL
Description for C6: Neuroprotective activity against Abeta1-42 peptide-induced neurotoxicity in rat C6 cells assessed as cell viability at 100 uM after 24 hrs by MTT assay
Description for Cholinesterase: Inhibition of BuChE in human serum using butyrylthiocholine iodide as substrate measured every 30s for 5 mins by Ellman's spectrophotometric method

On to `CC(C)=CCc1c(O)c(/C=N/CCCCCNc2c3c(nc4ccccc24)CCCC3)cc2c1[nH]c1ccccc12`, for which the result with NG108-15 [1] was Active. Also, the pIC50 at Cholinesterase was 4.71. The viability at 100 µM turned out to be 59.4% with C6 and 68.8% with NG108-15 [2].

`CC(C)=CCc1c(O)c(C=O)cc2c1[nH]c1ccccc12` [HEPTAPHYLLINE]: on Cholinesterase, the pIC50 is < 4.00. In the test with NG108-15 [2], the viability at 100 µM was found to be 59.8%.

Take `COc1ccc2c(c1)[nH]c1c(CC=C(C)C)c(O)c(/C=N/CCCNc3c4c(nc5ccccc35)CCCC4)cc12`: the outcome in the test on NG108-15 [3] was Active. The figures for the viability at 100 µM in the test with C6 and in the test with NG108-15 [2] were 63% and 74.7%, respectively.

Turning to `COc1ccc2c(c1)[nH]c1c(CC=C(C)C)c(O)c(/C=N/CCCCCNc3c4c(nc5ccccc35)CCCC4)cc12`, the outcome in the test with NG108-15 [3] was Active. The Activity with Mus musculus [4] turned out to be 59.8%; in the test on Mus musculus [5], 53.88%. The Time in the test on Mus musculus [6] worked out at 17.86 s; in the test on Mus musculus [7] it was 17.21 s. Besides, the pIC50 against Cholinesterase is 4.28. Further, the viability at 100 µM amounted to 66.3% with C6 and 78.4% in the test on NG108-15 [2].

As to `COc1ccc2c(c1)[nH]c1c(CC=C(C)C)c(O)c(C=O)cc12`, the pIC50 at Cholinesterase is < 4.00. For the same molecule, the viability at 100 µM in the test with NG108-15 [2] amounted to 65.5%.

These data come from ChEMBL document CHEMBL3124749, “Synthesis, biological evaluation and molecular modeling study of novel tacrine-carbazole hybrids as potential multifunctional agents for the treatment of Alzheimer's disease” (Eur J Med Chem, 2014).
